The text below walks through data of patent US20090307791A1, “CALCIUM-ACTIVATED CHLORIDE CHANNEL AND METHODS OF USE THEREOF” (priority 2008, published 2009).

The test system of one assay is CaCC. Put plainly: Ca2+ evoked current in A23187 treated Xenopus oocytes. In kind it is cell-based. As to conditions: Ca2+ 5 mM. Here is the method: (§1) For experiments involving TMEM16 constructs, capped cRNA was in vitro transcribed from linearized plasmids using the mMessage mMachine kit (Ambion). Female Axolotls and Xenopus laevis were purchased from the Ambystoma Genetic Stock Center and Nasco respectively. Oocytes from these animals were defoliculated by treatment with collagenase prepared as described. Usually 5 ng of cRNA (50 ng for mRNA) was injected into defolliculated oocytes. Oocytes were kept at 17° C. in ND96 solution (96 mM NaCl, 2 mM KCl, 1.8 mM CaCl2, 1 mM MgCl2, 10 mM HEPES [pH 7.4]). Two-electrode voltage-clamp measurements were performed at room temperature 2-4 days after injection using a GeneClamp500 amplifier (Axon Instruments) and pClamp 8.0 software (Axon Instruments). Oocytes used in photolysis experiments were injected with […] of 100 μM caged inositol trisphosphate [myo-inositol 1,4,5-trisphosphate, P4(5)-1-(2-nitrophenyl)ethyl ester] (Molecular Probes) at least 1 h before recording, and kept in dark until usage. For flash photolysis light derived from a mercury arc lamp was guided by a fused silica fiber (Oriel) to the top of oocytes in the recording chamber. Flash time was controlled via electronic shutter.
FIGS. 2A-f. Carbachol and Ca^2+ evoked current responses in different oocytes. […]

The test system of a further assay is endogenous CaCCs. As to the kind of experiment: NFA inhibition of IP3-induced Ca2+ activated Cl- currents, two electrode voltage clamp, Xenopus oocytes. Type of assay: cell-based, Xenopus laevis. Here is the method:
as §1
Currents were usually recorded in Ca^2+ free ND96 solution (96 mM NaCl, 2 mM KCl, 3 mM MgCl2, 10 mM HEPES [pH 7.4]). Solutions for Cl^−/gluconate replacement experiments were prepared from appropriate mixtures of solutions containing high Cl^− (95 mM NaCl, 1 mM KCl, 2 mM MgCl2, 10 mM HEPES [pH 7.4]) and solutions containing high gluconate (95 mM NaGluconate, 1 mM KCl, 2 mM MgCl2, 10 mM HEPES [pH 7.4]). In other permeability experiments solutions containing 90 NaX, 2 KCl, 4 MgCl, 10 mM HEPES [pH 7.4] with X=Cl^−, Br^−, I^− or SCN^− were used. […] The permeability ratios were calculated from shifts in reversal potential ΔErev using the Goldman-Hodgkin-Katz Equation in the form: PX/PCl=(γ·[Cl^−](1)−[Cl^−](2))/[X^−](2) were [Cl^−](1), [Cl^−](2) and [X^−](2) are the external Cl^− and X^− concentration before and after solution exchange. […]
Background: Two-electrode voltage clamp is typically applied to oocytes expressing channels or transporters.

Another assay has as its system xTMEM16A. Put plainly: NFA inhibition of IP3-induced CaCC currents, two electrode voltage clamp, Axolotl oocytes injected with xTMEM16A cRNA. As to conditions: Axolotl oocytes expressing xTMEM16A, 30 μM NFA, long lasting current. In kind it is cell-based. Here is the method:
as §1, with “(Molecular Probes) at least 1 h before recording, and kept in dark until usage. For flash photolysis light derived from a mercury arc lamp was guided by a fused silica fiber (Oriel) to the top of oocytes in the recording chamber. Flash time was controlled via electronic shutter.” left out
Currents were usually recorded in Ca^2+ free ND96 solution (96 mM NaCl, 2 mM KCl, 3 mM MgCl2, 10 mM HEPES [pH 7.4]). […] The permeability ratios were calculated from shifts in reversal potential ΔErev using the Goldman-Hodgkin-Katz Equation in the form: PX/PCl=(γ·[Cl^−](1)−[Cl^−](2))/[X^−](2) were [Cl^−](1), [Cl^−](2) and [X^−](2) are the external Cl^− and X^− concentration before and after solution exchange. […]

In the case of `CNc1ccc2oc(C[C@H]3O[C@@]4(CC[C@H]3C)O[C@H]([C@H](C)C(=O)c3ccc[nH]3)[C@H](C)C[C@H]4C)nc2c1C(=O)O` [A23187], in the assay on CaCC, the “CaCC activation by A23187 then high calcium solution” value was “resulted in CaCC activation”.
For the compound `O=C(O)c1cccnc1Nc1cccc(C(F)(F)F)c1` [NFA, niflumic acid], the “effect on decay of the residual CaCC current” value in the assay on endogenous CaCCs (30 μM NFA) is listed as “slowed the decay of the residual current”. For the same compound, the “effect on IP3-induced CaCC current amplitude” value with endogenous CaCCs (30 μM NFA, 1 min perfusion, ND96) is listed as “reduced the IP3-induced CaCC current”. Moreover, in the assay with endogenous CaCCs (after 5 min ND96 wash), the “reversibility after removal of NFA” value was “restored both the amplitude and the kinetics of the CaCC current”. In addition, the “effect on amplitude of a CaCC current of long duration” value with xTMEM16A is “barely reduced in amplitude”.
